The text below walks through data of patent US20190183893A1 (Guangzhou Dawnlight Biotech Company, priority 2016, published 2019).

“Also recorded” adds a separate entry of the source. Where a name gives a salt, the structure may show the parent alone. Read-outs that look alike come from different tables or passages of the source.

Data set [1] relates to transplanted tumor in mice. The data set is classed as in vivo, mouse. Conditions: for effect on the antineoplastic activity of low dose sildenafil: 2 mg/kg/day with sildenafil citrate 10 or 20 mg/kg/day; for tumor inhibition rate: 2 weeks; for toxicity / adverse reactions of the mice during the experimental period: citrate.
For data set [2], the system named is cultured tumor cells. The experiment in a line: growth of cultured tumor cells. Type of data set: cell-based. As to conditions: 200 μM; citrate. An excerpt: (§1) The antitneoplastic mechanism of sildenafil at low doses is not yet clear.
(§2) The antitneoplastic mechanism of low dose sildenafil is not yet clear.

Data set [3] deals with cultured tumor cells. The data set can be described thus: production of reactive oxygen species (ROS) in cultured tumor cells. The data set is classed as cell-based. As to conditions: 300 μM; citrate.
From the text: as §1, §2

Data set [4] can be described thus: sildenafil concentration in the blood after oral intake by an adult patient. Type of data set: in vivo, human. Conditions: low oral doses (2-10 mg), estimated.
From the text: as §1, §2

Data set [5] relates to malignant tumors. The data set can be described thus: general statement on low dose sildenafil: tumor growth inhibition in vivo and tolerability. As to conditions: low dose: daily oral 0.04˜0.5 mg per 1 kg, injection 0.04˜0.2 mg per 1 kg or topical less than 1%; for toxicity or side effects: citrate. An excerpt: It can be used to achieve effective control of tumor growth and improve the treatment of tumors.

The test system of data set [6] is human hepatocellular carcinoma cell line (HEPG2). As to conditions: 2 μM, citrate; cited from earlier work.
The test system of data set [7] is transplanted tumor of prostate cancer. As to conditions: cited from earlier work.
Data set [8] deals with transplanted tumor derived from liver cancer. Conditions: mouth-fed, combined with Stivarga (regorafenib); cited from earlier work.

Take `CN(C)CCC(c1ccc(Cl)cc1)c1ccccn1` (stereo not drawn) [chlorphenamine maleate]: the “effect on the antineoplastic activity of low dose sildenafil” value in data set [1] is reported as “directly counteract the antineoplastic activity”; in data set [1] (listed as chlorphenamine malate), “significantly counteracted the antineoplastic activity”.
For `CCCc1nn(C)c2c(=O)[nH]c(-c3cc(S(=O)(=O)N4CCN(C)CC4)ccc3OCC)nc12.O=C(O)CC(O)(CC(=O)O)C(=O)O` [sildenafil, 1-[[3-(6,7-Dihydro-1-methyl-7-oxo-3-propyl-1H-pyrazolo[4,3-d]pyrimidin-5-yl)-4-ethoxyphenyl]sulfonyl]-4-methylpiperazine citrate], the tumor inhibition rate in data set [1] (10 mg/kg/day, combined with chlorphenamine maleate 2 mg/kg/day) was 16%; in data set [1] (20 mg/kg/day, combined with chlorphenamine maleate 2 mg/kg/day), 7%; in data set [1] (gavage 10 mg/kg/day, alone), 63%; in data set [1] (gavage 20 mg/kg/day, alone), 50%. The “inhibitory effect on growth of the transplanted tumor” value in data set [1] (50 mg/kg/day) was “no obvious inhibitory effects”. In addition, in data set [1] (gavage 10 mg/kg/day, 36 days, dissolved in 25% ethanol), the “tumor growth inhibition rate” value came to 68%. Further, the “toxicity / adverse reactions of the mice during the experimental period” value was “no significant or observable toxicity reactions” in data set [1] (gavage 10 mg/kg/day, 36 days, 10 mg/kg/day) and “no significant or observable adverse reactions” in data set [1] (gavage 10 mg/kg/day, 36 days, listed as sildenafil citrate, 10 mg/kg/day). Further, the “effect on the growth of cultured tumor cells” value in data set [2] is listed as “direct inhibitory effect; also recorded: directly inhibited the growth”. In data set [3], the “production of reactive oxygen species (ROS)” value is “induced production of reactive oxygen species (ROS); also recorded: induce the production of reactive oxygen species (ROS)”. Besides, the “drug concentration in the blood” value in data set [4] is “lower than 0.1 μM”. Moreover, the “inhibition rate of tumor growth” value in data set [5] was “more than 50%”. Further, the entries for the “toxicity or side effects” value in data set [5], in data set [5] (listed as Sildenafil citrate) and in data set [5] (listed as sildenafil citrate) were “does not produce significant toxicity or side effects”, “without significant toxic side effects” and “without significant toxic side effects”, respectively. Besides, the “expression of IkB nitro-tyrosine and apoptotic gene ligand Fas-L” value in data set [6] is listed as “stimulate the expression”. In addition, the “antineoplastic effect used alone” value in data set [7] (alone at normal doses (25-100 mg), versus control group) is “not significant”. Besides, the “growth of transplanted tumor of prostate cancer” value in data set [7] (intraperitoneal injection, combined with Adriamycin (Doxorubicin)) was “significantly inhibit the growth”. Also, the “growth of transplanted tumor derived from liver cancer” value in data set [8] is “significantly inhibit the growth”.
